{
  "source": "paper PMC10427817",
  "about": "“Bioactivities of β-mangostin and its new glycoside derivatives synthesized by enzymatic reactions” (Royal Society Open Science, 2023)",
  "key": {"[1]": {"tested_on": "MCF-7 cell line", "design": "method as in doi:10.1016/j.jff.2013.10.018", "details": "cited from earlier work"}, "[2]": {"tested_on": "KB, MCF-7, A549, HepG2, HEK293 cell lines", "experiment": "MTT cytotoxicity assay, range over all tested cell lines", "type": "cell-based, human", "details": "Homo sapiens; range over all tested cell lines, MTT, 72 h", "method": "(§1) The cytotoxic activities against the cancer cell lines KB epidermal carcinoma, A549 lung cancer, HepG2 liver cancer and MCF-7 breast cancer, as well as the healthy cell line HEK293 embryonic kidney cells, were determined using the 3-(4,5-dimethylthiazol-2-yl)-2,5-diphenyltetrazolium bromide (MTT) assay. Briefly, cell lines were grown into log phase at 37°C, 5% CO2 in DMEM-Dulbecco's modified Eagle's medium and 10% fetal bovine serum. A concentration of 1 × 10^4–3 × 10^4 cells ml^−1 was prepared depending on the cell line used for the experiment by adding 10 µl of the sample and 190 µl of the cell suspension, followed by incubation under standard conditions. After 72 h of culture, 10 µl of MTT (5 mg ml^−1) was added and incubated for 4 h. Dimethyl sulfoxide (100 µl) was added to dissolve formazan crystals and the density was measured at 540 nm using a BioTek spectrophotometer. The inhibition of cell growth was expressed as IC50 (the half-maximal inhibitory concentration) value. Ellipticine was used as reference."}, "[3]": {"tested_on": "HepG2 liver cancer", "experiment": "MTT cytotoxicity assay, HepG2", "type": "cell-based, human", "details": "Homo sapiens, HepG2 cell line, 72 h, mean ± s.d., three replicates", "method": "as §1"}, "[4]": {"molecular_target": "T1, α-glucosidase (Saccharomyces cerevisiae, UniProt P53341)", "T1 construct": "purchased Sigma", "T1 sequence (P53341 whole entry)": "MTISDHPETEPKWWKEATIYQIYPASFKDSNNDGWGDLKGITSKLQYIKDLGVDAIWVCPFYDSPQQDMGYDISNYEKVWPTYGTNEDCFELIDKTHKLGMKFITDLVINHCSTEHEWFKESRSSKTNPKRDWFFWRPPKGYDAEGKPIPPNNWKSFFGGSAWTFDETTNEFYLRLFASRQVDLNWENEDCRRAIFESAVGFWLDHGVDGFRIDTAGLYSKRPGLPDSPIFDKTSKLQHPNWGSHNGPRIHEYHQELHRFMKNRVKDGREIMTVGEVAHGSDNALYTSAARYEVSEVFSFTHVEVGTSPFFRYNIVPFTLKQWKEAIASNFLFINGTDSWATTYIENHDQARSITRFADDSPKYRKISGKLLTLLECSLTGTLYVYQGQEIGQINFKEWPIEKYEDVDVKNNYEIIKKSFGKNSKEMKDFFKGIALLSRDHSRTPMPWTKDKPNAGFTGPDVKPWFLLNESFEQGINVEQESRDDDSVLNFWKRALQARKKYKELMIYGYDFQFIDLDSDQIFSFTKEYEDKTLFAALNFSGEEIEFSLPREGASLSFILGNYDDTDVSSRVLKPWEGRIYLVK", "experiment": "Alpha-glucosidase inhibitory assay", "type": "biochemical", "method": "Beta-mangostin and α-mangostin were purchased from Chengdu Biopurify Phytochemicals, Ltd. Recombinant Escherichia coli (BL21 (DE3)) strains were kindly provided by Prof. Jae Kyung Sohng, Sun Moon University, Korea. The cell lines and microorganisms were derived from the American Type Culture Collection (ATCC). α-Glucosidase (CAS no. 900-42-7, Sigma) was from Saccharomyces cerevisiae. All chemicals were of analytical grade and available.\nThe α-glucosidase inhibitory activity assay was conducted using a reaction mixture containing phosphate buffer (100 mM; pH 6.8), p-nitrophenyl-α-D-glucopyranoside (pNPG) (2.5 mM) and samples at various concentrations. The reactions were initiated by adding α-glucosidase (0.2 U ml^−1), incubated at 37°C for 30 min and quenched by adding Na2CO3 (50 mM). The absorbance of the reaction was determined using a BioTek instrument at a wavelength of 410 nm (A)."}},
  "note": "Like-named read-outs stand apart in the source and are kept apart here.",
  "data": [
    {"smiles": "COc1cc2oc3cc(O)c(OC)c(CC=C(C)C)c3c(=O)c2c(O)c1CC=C(C)C", "note": "[β-mangostin]", "values": [
      {"measurement": "IC50", "setting": "[1]; MCF-7, 24 h treatment", "value": 26, "unit": "µM"},
      {"measurement": "IC50", "setting": "[1]; MCF-7, 48 h treatment", "value": 16.5, "unit": "µM"},
      {"measurement": "IC50", "setting": "[2]", "value": "15.4 to 21.1", "unit": "µM"},
      {"measurement": "IC50", "setting": "[3]", "value": "18.9 ± 7.6", "unit": "µM"},
      {"measurement": "IC50", "setting": "[4]", "value": "27.6 ± 4.6", "unit": "µM"},
      {"measurement": "inhibitory potency ratio", "setting": "[4]; compared with the positive control acarbose", "value": 7.55}
    ]}
  ]
}
